Test results from article PMC10233829 (ACS Omega, 2023).
Values after ≈ are worked out from the molar mass of the structure shown.

Legend:
[1] = system: M. tuberculosis H37Rv; test: Tuberculostatic activity, Microplate Alamar Blue Assay (MIC); type: cell-based, Mycobacterium tuberculosis; details: Mycobacterium tuberculosis, H37RV; MABA; read-out: MIC M. tuberculosis H37Rv
[2] = system: M. tuberculosis Spec. 192; test: as above; type: cell-based; details: Mycobacterium tuberculosis, MABA, read-out: MIC M. tuberculosis Spec. 192 (sensitive to tuberculostatics)
[3] = system: S. aureus NCTC 4163; test: MIC, twofold microdilution, standard strain; type: cell-based; details: Staphylococcus aureus, NCTC4163, 18 h
[4] = system: S. aureus ATCC 25923; test: MIC, twofold microdilution, standard strain; type: cell-based; details: Staphylococcus aureus, ATCC25923, 18 h
[5] = system: S. aureus ATCC 6538; test: MIC, twofold microdilution, standard strain; type: cell-based, Staphylococcus aureus; details: Staphylococcus aureus, ATCC6538; standard strain, 18 h
[6] = system: S. aureus ATCC 29213; test: MIC, twofold microdilution, standard strain; type: cell-based; details: Staphylococcus aureus, ATCC29213, 18 h
[7] = system: S. epidermidis ATCC 12228; test: MIC, twofold microdilution, standard strain; type: cell-based; details: Staphylococcus epidermidis, ATCC12228, 18 h
[8] = system: S. epidermidis ATCC 35984; test: MIC, twofold microdilution, standard strain; type: cell-based; details: Staphylococcus epidermidis, ATCC35984, 18 h
[9] = system: P. aeruginosa ATCC 15442; test: MIC, twofold microdilution, standard strain; type: cell-based, Pseudomonas aeruginosa; details: Pseudomonas aeruginosa, ATCC15442; standard strain, 18 h
[10] = system: E. coli ATCC 25922; test: MIC, twofold microdilution, standard strain; type: cell-based, Escherichia coli; details: Escherichia coli, ATCC25922; standard strain, 18 h
[11] = system: S. aureus 180; test: MIC, twofold microdilution, clinical strain; type: cell-based; details: Staphylococcus aureus, 18 h
[12] = system: S. aureus 5595; test: MIC, twofold microdilution, clinical strain; type: cell-based; details: Staphylococcus aureus, 18 h
[13] = system: S. aureus T5595; test: MIC, twofold microdilution, clinical strain; type: cell-based, Staphylococcus aureus; details: Staphylococcus aureus, T5595, 18 h
[14] = system: S. aureus T5591; test: MIC, twofold microdilution, clinical strain; type: cell-based, Staphylococcus aureus; details: Staphylococcus aureus, T5591, 18 h
[15] = system: S. epidermidis 4341; test: MIC, twofold microdilution, clinical strain; type: cell-based; details: Staphylococcus epidermidis, 18 h
[16] = system: S. epidermidis 5253; test: MIC, twofold microdilution, clinical strain; type: cell-based, Staphylococcus epidermidis; details: Staphylococcus epidermidis, 5253, 18 h
[17] = system: S. epidermidis KR4243/1; test: MIC, twofold microdilution, clinical strain; type: cell-based; details: Staphylococcus epidermidis, 18 h
[18] = system: S. pasteuri KR 4358; test: MIC, twofold microdilution, clinical strain; type: cell-based; details: Staphylococcus pasteuri, KR4358, 18 h
[19] = system: P. aeruginosa 37; test: MIC, twofold microdilution, clinical strain; type: cell-based; details: Pseudomonas aeruginosa, 18 h
[20] = system: P. aeruginosa 659; test: MIC, twofold microdilution, clinical strain; type: cell-based; details: Pseudomonas aeruginosa, 18 h
[21] = system: E. coli 951; test: MIC, twofold microdilution, clinical strain; type: cell-based; details: Escherichia coli, 18 h
[22] = system: E. coli 520; test: MIC, twofold microdilution, clinical strain; type: cell-based; details: Escherichia coli, 18 h
[23] = system: E. coli 600; test: MIC, twofold microdilution, clinical strain; type: cell-based, Escherichia coli; details: Escherichia coli, 600, 18 h
[24] = system: E. cloacae 8; test: MIC, twofold microdilution, clinical strain; type: cell-based, Escherichia cloacae; details: Enterobacter cloacae, 8; clinical strain, 18 h
[25] = system: K. pneumoniae 28; test: MIC, twofold microdilution, clinical strain; type: cell-based; details: Klebsiella pneumoniae, 18 h
[26] = system: K. pneumoniae 510; test: MIC, twofold microdilution, clinical strain; type: cell-based, Klebsiella pneumoniae; details: Klebsiella pneumoniae, 510; clinical strain, 18 h
[27] = system: PC3 cells; test: MTT assay, cytotoxic activity; type: cell-based, human; details: Homo sapiens, PC-3, 72 h, MTT, 72 h
Description: Metastatic prostate cancer (PC3) and human immortal keratinocyte (HaCaT) cell lines were purchased from the American Type Culture Collection (ATCC, Rockville, MD, USA) and cultured in MEM (minimal essential medium, Thermo Sci, USA), RPMI 1640 (Roswell Park Memorial Institute, Biowest SAS, France), and DMEM (Dulbecco’s Modified Eagle’s Medium, Biowest SAS, France). Cells were seeded in 6 mL medium in a tissue culture flask (50 mL) in a 37 °C/5% CO2 humidified incubator. […] MTT analysis was performed according to a previous study.[59] Untreated cells were used as controls. Cell absorbance results were inserted into the formula for the relative MTT level (%). It allows to calculate the viability of cells under the influence of the tested compounds. Cell viability was expressed as the percentage of MTT reduction in cells treated with tested compounds compared to the control sample. The relative MTT level was calculated using the formula [100%] = A/B × 100% where A—the test sample absorbance and B—the control sample absorbance.

[28] = MTT assay, cytotoxic activity; type: cell-based; details: human, HaCaT cells (immortal keratinocytes); MTT, 72 h, normal cell line; read-out: IC50 HaCaT
Description: Cells were seeded in 6 mL medium in a tissue culture flask (50 mL) in a 37 °C/5% CO2 humidified incubator. […] MTT analysis was performed according to a previous study.[59] Untreated cells were used as controls. Cell absorbance results were inserted into the formula for the relative MTT level (%). It allows to calculate the viability of cells under the influence of the tested compounds. Cell viability was expressed as the percentage of MTT reduction in cells treated with tested compounds compared to the control sample. The relative MTT level was calculated using the formula [100%] = A/B × 100% where A—the test sample absorbance and B—the control sample absorbance.

[29] = system: Staphylococci (standard strains); test: MIC, standard Gram-positive strains as a panel; type: cell-based, S. aureus, S. epidermidis; details: standard Gram-positive strains of Table 1; read-out: MIC toward standard Staphylococci (range over strains)
[30] = system: clinical bacterial strains; test: MIC, clinical isolates as groups of strains; type: cell-based; details: S. aureus T5595 and T5591

Row | SMILES | MIC [1] [µg/mL] | MIC [2] [µg/mL] | MIC [3] [µg/mL] | MIC [4] [µg/mL] | MIC [5] [µg/mL] | MIC [6] [µg/mL] | MIC [7] [µg/mL] | MIC [8] [µg/mL] | MIC [9] [µg/mL] | MIC [10] [µg/mL] | MIC [11] [µg/mL] | MIC [12] [µg/mL] | MIC [13] [µg/mL] | MIC [14] [µg/mL] | MIC [15] [µg/mL] | MIC [16] [µg/mL] | MIC [17] [µg/mL] | MIC [18] [µg/mL] | MIC [19] [µg/mL] | MIC [20] [µg/mL] | further results
1 | CC[C@@H](CO)NCCN[C@@H](CC)CO [ethambutol(EMB), ethambutol, reference compound] | 2 (≈ 9.79 µM) | 2 (≈ 9.79 µM) |  |  |  |  |  |  |  |  |  |  |  |  |  |  |  |  |  |  | 
2 | [H]/N=C(/N)N[C@H]1[C@H](O)[C@@H](O)[C@H](O[C@@H]2O[C@@H](C)[C@](O)(C=O)[C@H]2O[C@@H]2O[C@@H](CO)[C@H](O)[C@@H](O)[C@@H]2NC)[C@@H](N/C(N)=N\[H])[C@@H]1O [streptomycin (SM), streptomycin, reference compound] | 1 (≈ 1.72 µM) | 1 (≈ 1.72 µM) |  |  |  |  |  |  |  |  |  |  |  |  |  |  |  |  |  |  | 
3 | CO[C@H]1/C=C/O[C@@]2(C)Oc3c(C)c(O)c4c(O)c(c(/C=N/N5CCN(C)CC5)c(O)c4c3C2=O)NC(=O)/C(C)=C\C=C\[C@H](C)[C@H](O)[C@@H](C)[C@@H](O)[C@@H](C)[C@H](OC(C)=O)[C@@H]1C [rifampicin (RMP), rifampicin, reference compound] | 1 (≈ 1.22 µM) | 1 (≈ 1.22 µM) |  |  |  |  |  |  |  |  |  |  |  |  |  |  |  |  |  |  | 
4 | O=C(O)c1cn(C2CC2)c2cc(N3CCN(C(=O)CCCC(F)(F)F)CC3)c(F)cc2c1=O [Compound 16, 7-[4-(5,5,5-Trifluoropentanoyl)-piperazin-1-yl]-1-cyclopropyl-6-fluoro-4-oxo-1,4-dihydro-quinoline-3-carboxylic Acid] | 64 (≈ 136 µM) | 64 (≈ 136 µM) | 0.2 (≈ 0.426 µM) | 0.2 (≈ 0.426 µM) | 0.2 (≈ 0.426 µM) | 0.2 (≈ 0.426 µM) | 0.2 (≈ 0.426 µM) | 0.2 (≈ 0.426 µM) | 1 (≈ 2.13 µM) | 1.6 (≈ 3.41 µM) | 1 (≈ 2.13 µM) | 1 (≈ 2.13 µM) | 0.4 (≈ 0.852 µM) | 0.4 (≈ 0.852 µM) | 25.6 (≈ 54.5 µM) | > 25.6 | 0.4 (≈ 0.852 µM) | 0.4 (≈ 0.852 µM) | > 25.6 | > 25.6 | MIC [21]: > 25.6 µg/mL; MIC [22]: 3.2 µg/mL (≈ 6.82 µM); MIC [23]: 6.4 µg/mL (≈ 13.6 µM); MIC [24]: 8 µg/mL (≈ 17 µM); MIC [25]: > 25.6 µg/mL; MIC [26]: > 25.6 µg/mL; IC50 [27]: 68.8 ± 9.9 µM; IC50 at 72 h [28]: > 100 µM; MIC [29]: 0.2 µg/mL (≈ 0.426 µM); share of the reference (CP) activity [30]: 62.5%
5 | O=C(O)c1cn(C2CC2)c2cc(N3CCN(CCCCCC(=O)N4CCN(c5cc6c(cc5F)c(=O)c(C(=O)O)cn6C5CC5)CC4)CC3)c(F)cc2c1=O [Compound 20, CP–Hexanoyl–CP Dimer] | 32 (≈ 42.2 µM) | 16 (≈ 21.1 µM) | 1.6 (≈ 2.11 µM) | 1.6 (≈ 2.11 µM) | 1.6 (≈ 2.11 µM) | 1.6 (≈ 2.11 µM) | 1.6 (≈ 2.11 µM) | 1.6 (≈ 2.11 µM) | > 25.6 | 6.4 (≈ 8.43 µM) | 1 (≈ 1.32 µM) | 1 (≈ 1.32 µM) | 0.8 (≈ 1.05 µM) | 0.8 (≈ 1.05 µM) | > 25.6 | > 25.6 | 0.8 (≈ 1.05 µM) | 0.8 (≈ 1.05 µM) | > 25.6 | > 25.6 | MIC [21]: > 25.6 µg/mL; MIC [22]: 12.8 µg/mL (≈ 16.9 µM); MIC [23]: 12.8 µg/mL (≈ 16.9 µM); MIC [24]: > 25.6 µg/mL; MIC [25]: > 25.6 µg/mL; MIC [26]: > 25.6 µg/mL; IC50 [27]: 69.9 ± 7.2 µM; IC50 at 72 h [28]: 89.5 ± 5.9 µM
